In general, IC50 refers to the midpoint of a concentration-inhibition curve. Lower therefore signals inhibition by little substance.

Each structure is given as a SMILES string.

T1 sequence (O15527 whole entry): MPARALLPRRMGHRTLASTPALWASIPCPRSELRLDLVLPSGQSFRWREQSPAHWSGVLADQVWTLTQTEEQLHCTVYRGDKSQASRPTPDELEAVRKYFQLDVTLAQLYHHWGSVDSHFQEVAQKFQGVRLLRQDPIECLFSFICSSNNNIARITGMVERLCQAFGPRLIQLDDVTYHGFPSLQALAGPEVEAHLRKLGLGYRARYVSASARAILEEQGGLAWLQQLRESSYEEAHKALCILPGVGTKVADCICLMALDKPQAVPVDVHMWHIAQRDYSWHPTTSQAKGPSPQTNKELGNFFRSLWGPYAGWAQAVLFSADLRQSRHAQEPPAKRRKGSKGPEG

One test concerns the target T1, N-glycosylase/DNA lyase (Homo sapiens, UniProt O15527). The experiment in a line: Gel-based Cleavage Assay.
Details: not given
How it is done: Substrate (5 µL, 50 nM) was added to bring the final volume to 10 µL. The reaction was incubated 30 min at 37 °C, quenched by the addition of 10 µL of formamide, and put on ice. […] Band intensities were quantified using the Image Studio Lite Software (LI-COR).
Regarding `NNC(=O)c1ccncc1` [4-pyridinecarbohydrazide(Isoniazid)], the IC50 was more than 50000 nM. As for `NNC(=O)c1sc2cccc(Cl)c2c1Cl` [3,4‐Dichloro‐1‐benzothiophene‐2‐carbohydrazide (08)], the IC50 stood at 220 nM. For `O=C(NN=C1CCCCC1)c1cc2ccccc2cc1O` [N'‐Cyclohexylidene‐3‐hydroxynaphthalene‐2‐carbohydrazide (0158)], half-maximal inhibition (IC50) was put at 340 nM.

Another test addresses T1, N-glycosylase/DNA lyase. As to the kind of experiment: Fluorescence-based Assay. To be noted: pH 7.5; 37 °C. How it is done: The fluorescence-based assay outlined in Figure 2 a was performed in black, low volume 384-well plates with a fi nal volume of 10 µL per well. Nine uL of assay buffer (20 mM Tris-HCl, 100 mM KCl, 0.1% BSA, 0.01% Tween-20, pH 7.5) was added toeach well, followed by the addition of 1 uL of DMSO (control) or 50 µM compound in DMSO. […] Control wells containing just substrate or just substrate + enzyme were used to calculate Z values for each plate.
On to `COc1cc(C)c(S(=O)(=O)n2cc(C)nc2-c2ccccc2)cc1C` [1‐(4‐Methoxy‐2,5‐dimethylbenzenesulfonyl)‐4‐methyl‐2‐phenylimidazole (0105)], for which the IC50 came out at 4150 nM. With `NNC(=O)c1ccncc1` [4-pyridinecarbohydrazide(Isoniazid)], the IC50 is more than 50000 nM. `NNC(=O)COc1cccc2ccccc12` [2‐(Naphthalen‐1‐yloxy)acetohydrazide (040)] registered an IC50 of 1560 nM.

`O=C(CCNNC(=O)c1ccncc1)NCc1ccccc1` [Nialamide] returned a half-maximal inhibitory concentration (IC50) of more than 50000 nM. For the molecule `C=CCC/C(C)=N\NC(=O)c1cccc(Br)c1` [3‐Bromo‐N'‐[(2Z)‐hex‐5‐en‐2‐ylidene]benzohydrazide (0155)], 3780 nM corresponded to half-maximal inhibition (IC50).

With `NC(=O)c1ccc(Br)cc1` [4-Bromo-benzamide], the IC50 is more than 50000 nM.

Consider `NNC(=O)c1sc2cccc(Cl)c2c1Cl` [3,4‐Dichloro‐1‐benzothiophene‐2‐carbohydrazide (08)], for which half-maximal inhibition (IC50) required 350 nM. Turning to `Cc1cc(OCC(=O)NN)cc(C)c1Cl` [2‐(4‐Chloro‐3,5‐dimethylphenoxy)acetohydrazide (0159)], the IC50 turned out to be 1530 nM. The molecule `NNC(=O)c1sc2ccccc2c1Cl` [3‐Chloro‐1‐benzothiophene‐2‐carbohydrazide (O8-Cl)] gave an IC50 of 300 nM.

The molecule `NNc1nncc2ccccc12` [NSC_3637] yielded an IC50 of more than 50000 nM. With `O=C(NN=C1CCCCC1)c1cc2ccccc2cc1O` [N'‐Cyclohexylidene‐3‐hydroxynaphthalene‐2‐carbohydrazide (0158)], the IC50 was 290 nM. Take `Cc1cc(C(=O)NNCc2ccccc2)no1` [ISOCARBOXAZID]: the half-inhibitory concentration (IC50) was more than 50000 nM. Consider `CCCC/C(C)=N\NC(=O)c1cccc(Br)c1` [3‐Bromo‐N'‐[(2Z)‐hexan‐2‐ylidene]benzohydrazide (0156)], for which the IC50 stood at 2130 nM. As for `CC(Oc1cccc(Cl)c1)C(=O)NN` (stereo not given) [2‐(3‐Chlorophenoxy)propanehydrazide (01)], the IC50 was 3380 nM.

For the molecule `C/C(=N\NC(=O)c1cc2ccccc2cc1O)c1ccc2c(c1)OCO2` [N'‐[(1E)‐1‐(2H‐1,3‐benzodioxol‐5‐yl)ethylidene]‐3‐hydroxynaphthalene‐2‐carbohydrazide (0179)], the IC50 worked out at 7170 nM.

`CCCN1CCC(=NNC(=O)c2ccc(Cl)cc2Cl)CC1` [2,4‐Dichloro‐N'‐(1‐propylpiperidin‐4‐ ylidene)benzohydrazide (0181)] yielded an IC50 of 4560 nM. Same read-out and setting: next, `NNC(=O)c1ccc(Br)cc1` [Benzoylhydrazine, P‐bromo (0151-Hy)]: 390 nM.

These data come from BindingDB's records for doi:10.1021/acschembio.5b00452 (Oregon Health & Science University, 2015).
